Experimental data reported in patent publication US20140315933A1, “CHEMICAL COMPOUNDS” (Pfizer Limited, priority 2013, published 2014).
Structures can show the parent of a compound that is named as a salt.

What follows are compounds tested against T1, URAT-1 transporter (Homo sapiens, UniProt Q96S37) (assay: URAT-1 inhibitor activity: [14C]-uric acid uptake into CHO-URAT1(L)GFP#8 (CHO#8) cells, scintillation proximity). Settings: not given.
T1 construct: expressed in transfected cells
Format: cell-based
Source text: The nucleotide sequence for the long isoform of URAT1 (NM_144585) was C-terminally fused to that of enhanced green fluorescent protein (eGFP) (hereinafter referred to as URAT1(L)GFP). The combined sequence was codon-optimised and custom synthesized. The synthesized sequence was generated in pDONR221 Gateway entry vector (Invitrogen Life Technologies) prior to cloning in pLenti6.3/V5 Gateway destination vector (Invitrogen Life Technologies).
Lentiviral particles were generated according to ViraPower HiPerform expression system procedure (Invitrogen Life Technologies) and used to transduce CHO cells. Blasticidin selection enabled the generation of a stable clonal pool of cells, confirmed by expression of GFP and V5 epitope. The clonal pools were sorted using fluorescence-activated cell sorting (FACS) on the basis of GFP expression with the gating set at the top 50% of expression into single cells which were subsequently expanded to generate clonal lines. […] This cell line was used for all screening activities and is referred to as CHO-URAT1(L)GFP#8 or CHO#8.
The potency of the compounds of formula (I) as inhibitors of the URAT-1 transporter was determined as follows.
CHO#8 cells were cultured in cell line maintenance flasks in medium consisting of Dulbecco's modified Eagle medium (DMEM) with high glucose and sodium pyruvate (4.5 g of glucose per litre, Invitrogen Life Technologies), supplemented with heat-inactivated foetal bovine serum (FBC, 10% v/v), 1×NEAA (non-essential amino acids) and blasticidin (10 μg/ml). Cultures were grown in 175 cm^2 tissue culture flasks in a humidified incubator at approximately 37° C. in approximately 95% air/5% CO2. Near confluent CHO#8 cell cultures were harvested by trypsinisation, re-suspended in culture medium and the process was repeated once or twice weekly to provide sufficient cells for use.
Assay ready flasks were generated by the same method, except the cells were not cultured in blasticidin.
Assay ready frozen cells were generated by freezing 40,000,000 cells in 1 ml of FBS (without blasticidin) containing 10% DMSO per vial. One vial was sufficient for 5 assay plates. Each vial was thawed rapidly to 37° C., washed and re-suspended in pre-warmed culture medium for seeding onto assay plates.
CHO#8 cells were seeded onto Cytostar™ 96-well plates at a density of […]. The cells were cultured for 1 day at approximately 37° C. in a humidified incubator containing approximately 5% CO2 in air. After approximately 24 hours culture, cells were used for uptake experiments.
On the day of assay, culture medium was removed from the wells and the cells were washed once with 50 μL of chloride-containing buffer (136.7 mM NaCl, 5.36 mM KCl, 0.952 mM CaCl2, 0.441 mM KH2PO4, 0.812 mM MgSO4, 5.6 mM D-glucose, 0.383 mM Na2HPO4.2H2O, 10 mM HEPES, pH 7.4 with NaOH). The cells were pre-incubated with another 50 μL of chloride-containing buffer for one hour at approximately 37° C. in a humidified incubator containing approximately 5% CO2 in air.
Assay compound plates were prepared by diluting the compounds of formula (I) with chloride-free buffer (125 mM Na-gluconate, 4.8 mM K-gluconate, 1.3 mM Ca-gluconate, 1.2 mM KH2PO4, 1.2 mM MgSO4, 5.6 mM D-glucose, 25 mM HEPES, pH 7.4 with NaOH) in 100% DMSO to a final concentration of 1% DMSO. [^14C]-Uric Uric acid working stock was made by addition of radiolabeled compound to a final concentration of 120 nM in chloride-free buffer. In all wells, the final assay concentration of solvent (DMSO) was 0.25%; the final assay concentration of [^14C]-uric acid was 30 nM in chloride-free buffer and the final compound of formula (I) concentrations ranged from 0 to 10 μM.
After pre-incubation, cells were washed with 50 μL of chloride-free buffer and another 50 μL of chloride-free buffer was added. […]

Compound	IC50
Cn1ccc(NS(=O)(=O)c2ccc(Oc3ccc(C#N)c(Cl)c3)c(C#N)c2)n1 [Example 4, 4-(3-chloro-4-cyanophenoxy)-3-cyano-N-(1-methyl-1H-pyrazol-3-yl)benzenesulfonamide diethylamine salt]	3360 nM
O=S(=O)(Nc1nccs1)c1ccc(Oc2ccc(C(F)(F)F)cc2C(F)(F)F)c(F)c1 [Example 6, 4-[2,4-bis(trifluoromethyl)phenoxy]-3-fluoro-N-(1,3-thiazol-2-yl)benzenesulfonamide]	> 10000 nM
COc1cc(Cl)c(Cl)cc1Oc1ccc(S(=O)(=O)Nc2ncns2)cc1C#N [Example 9, 3-cyano-4-(4,5-dichloro-2-methoxyphenoxy)-N-(1,2,4-thiadiazol-5-yl)benzenesulfonamide]	> 2810 nM
COc1ccc(Cl)cc1Oc1ccc(S(=O)(=O)Nc2ncns2)cc1C#N [Example 10, 4-(5-chloro-2-methoxyphenoxy)-3-cyano-N-(1,2,4-thiadiazol-5-yl)benzenesulfonamide diethylamine salt]	> 5760 nM
CCOc1cc(Cl)ccc1Oc1ccc(S(=O)(=O)Nc2ncns2)cc1C#N [Example 12, 4-(4-chloro-2-ethoxyphenoxy)-3-cyano-N-(1,2,4-thiadiazol-5-yl)benzenesulfonamide]	354 nM
N#Cc1cc(S(=O)(=O)Nc2ncns2)ccc1Oc1ccc(Cl)cc1 [Example 13, 4-(4-chlorophenoxy)-3-cyano-N-(1,2,4-thiadiazol-5-yl)benzenesulfonamide diethylamine salt]	1270 nM
N#Cc1cc(S(=O)(=O)Nc2ncns2)ccc1Oc1cncc(Cl)c1 [Example 19, 4-[(5-chloropyridin-3-yl)oxy]-3-cyano-N-(1,2,4-thiadiazol-5-yl)benzenesulfonamide]	> 10000 nM
N#Cc1cc(S(=O)(=O)Nc2ncns2)ccc1Oc1ccc(C(F)(F)F)nc1 [Example 21, 3-cyano-N-(1,2,4-thiadiazol-5-yl)-4-{[6-(trifluoromethyl)pyridin-3-yl]oxy}benzenesulfonamide]	> 10000 nM
N#Cc1ccc(Oc2ccc(S(=O)(=O)Nc3ncns3)cc2C#N)c(OC(F)F)c1 [Example 23, 3-cyano-4-[4-cyano-2-(difluoromethoxy)phenoxy]-N-(1,2,4-thiadiazol-5-yl)benzenesulfonamide]	> 10000 nM
N#Cc1ccc(OC(F)F)c(Oc2ccc(S(=O)(=O)Nc3ncns3)cc2C#N)c1 [Example 24, 3-cyano-4-[5-cyano-2-(difluoromethoxy)phenoxy]-N-(1,2,4-thiadiazol-5-yl)benzenesulfonamide diethylamine salt]	> 10000 nM
COc1cc(C(F)(F)F)ccc1Oc1ccc(S(=O)(=O)Nc2ncns2)cc1C#N [Example 25, 3-cyano-4-[2-methoxy-4-(trifluoromethyl)phenoxy]-N-(1,2,4-thiadiazol-5-yl)benzenesulfonamide diethylamine salt]	> 10000 nM
COc1cc(Cl)cc(Cl)c1Oc1ccc(S(=O)(=O)Nc2ncns2)cc1C#N [Example 26, 3-cyano-4-(2,4-dichloro-6-methoxyphenoxy)-N-(1,2,4-thiadiazol-5-yl)benzenesulfonamide diethylamine salt]	875 nM
COc1ccc(OC(F)(F)F)cc1Oc1ccc(S(=O)(=O)Nc2ncns2)cc1C#N [Example 28, 3-cyano-4-[2-methoxy-5-(trifluoromethoxy)phenoxy]-N-(1,2,4-thiadiazol-5-yl)benzenesulfonamide diethylamine salt]	> 7450 nM

Other lines, results leading:

IC50	Compound
58 nM	N#Cc1ccc(Oc2ccc(S(=O)(=O)Nc3nccs3)cc2C#N)cc1Cl [Example 1, 4-(3-chloro-4-cyanophenoxy)-3-cyano-N-(1,3-thiazol-2-yl)benzenesulfonamide]
64 nM	CCc1cc(F)ccc1Oc1ccc(S(=O)(=O)Nc2ncns2)cc1CC [Example 2, 3-ethyl-4-(2-ethyl-4-fluorophenoxy)-N-(1,2,4-thiadiazol-5-yl)benzenesulfonamide diethylamine salt]
69 nM	CCc1cc(F)ccc1Oc1ccc(S(=O)(=O)Nc2ncns2)cc1I [Example 3, 4-(2-ethyl-4-fluorophenoxy)-3-iodo-N-(1,2,4-thiadiazol-5-yl)benzenesulfonamide]
> 10000 nM	Cc1cc(NS(=O)(=O)c2ccc(Oc3ccc(C#N)c(Cl)c3)c(C#N)c2)no1 [Example 5, 4-(3-chloro-4-cyanophenoxy)-3-cyano-N-(5-methyl-1,2-oxazol-3-yl)benzenesulfonamide diethylamine salt]
141 nM	N#Cc1cc(S(=O)(=O)Nc2nccs2)ccc1Oc1ccc(CO)cc1F [Example 7, 3-cyano-4-[2-fluoro-4-(hydroxymethyl)phenoxy]-N-(1,3-thiazol-2-yl)benzenesulfonamide, diethylamine salt]
2140 nM	N#Cc1cc(S(=O)(=O)Nc2nccs2)ccc1Oc1ccc(Br)cc1CO [Example 8, 4-[4-bromo-2-(hydroxymethyl)phenoxy]-3-cyano-N-(1,3-thiazol-2-yl)benzenesulfonamide]
1380 nM	CC(C)Oc1ccc(Cl)cc1Oc1ccc(S(=O)(=O)Nc2ncns2)cc1C#N [Example 11, 4-[5-chloro-2-(propan-2-yloxy)phenoxy]-3-cyano-N-(1,2,4-thiadiazol-5-yl)benzenesulfonamide diethylamine salt]
> 2900 nM	CC(C)c1cccc(Oc2ccc(S(=O)(=O)Nc3ncns3)cc2C#N)c1 [Example 14, 3-cyano-4-[3-(propan-2-yl)phenoxy]-N-(1,2,4-thiadiazol-5-yl)benzenesulfonamide diethylamine salt]
> 7370 nM	N#Cc1ccc(Oc2ccc(S(=O)(=O)Nc3ncns3)cc2C#N)cc1 [Example 15, 3-cyano-4-(4-cyanophenoxy)-N-(1,2,4-thiadiazol-5-yl)benzenesulfonamide diethylamine salt]
428 nM	N#Cc1cc(S(=O)(=O)Nc2ncns2)ccc1Oc1ccc(Cl)cc1Cl [Example 16, 3-cyano-4-(4,6-dichlorophenoxy)-N-(1,2,4-thiadiazol-5-yl)benzenesulfonamide]
161 nM	CCOc1ncccc1Oc1ccc(S(=O)(=O)Nc2ncns2)cc1C#N [Example 17, 3-cyano-4-[(2-ethoxypyridin-3-yl)oxy]-N-(1,2,4-thiadiazol-5-yl)benzenesulfonamide diethylamine salt]
> 10000 nM	COc1ccncc1Oc1ccc(S(=O)(=O)Nc2ncns2)cc1C#N [Example 18, 3-cyano-4-[(4-methoxypyridin-3-yl)oxy]-N-(1,2,4-thiadiazol-5-yl)benzenesulfonamide]
> 7520 nM	COc1ccc(Oc2ccc(S(=O)(=O)Nc3ncns3)cc2C#N)cn1 [Example 20, 3-cyano-4-[(6-methoxypyridin-3-yl)oxy]-N-(1,2,4-thiadiazol-5-yl)benzenesulfonamide]
3160 nM	N#Cc1cc(Cl)ccc1Oc1ccc(S(=O)(=O)Nc2ncns2)cc1C#N [Example 22, 4-(4-chloro-2-cyanophenoxy)-3-cyano-N-(1,2,4-thiadiazol-5-yl)benzenesulfonamide]
> 10000 nM	COc1cc(OC(F)(F)F)ccc1Oc1ccc(S(=O)(=O)Nc2ncns2)cc1C#N [Example 27, 3-cyano-4-[2-methoxy-4-(trifluoromethoxy)phenoxy]-N-(1,2,4-thiadiazol-5-yl)benzenesulfonamide diethylamine salt]

Same assay, conditions: inhibition of [14C]-uric acid (30 nM) uptake into CHO#8 cells; compound 0 to 10 μM; 4 parameter logistic fit

Compound	IC50
3-chloro-4-(4-chlorophenoxy)-N-(1,2,4-thiadiazol-5-yl)benzenesulfonamide diethylamine salt [Example 62]	722 nM
5-chloro-4-(3,4-difluorophenoxy)-2-fluoro-N-(1,3-thiazol-4-yl)benzenesulfonamide [compound 230]	747 nM
